According to the NIST ThermoML archive (doi:10.1016/j.tca.2013.03.025):

Experiment: xn = mol fraction of the nth substance listed
Conditions: 101 kPa, Liquid; for viscosity: Concentric cylinders viscometry; for mass density: Vibrating tube method

CCCCOC(=O)C(C)O (stereo not given) [butyl 2-hydroxypropanoate] + CCCO
Conditions	mass density [kg/m3]	viscosity [mPa·s]
288.15 K, x1 = 0.1	841.535	2.632
288.15 K, x1 = 0.2	869.447	2.786
288.15 K, x1 = 0.3001	892.853	2.979
288.15 K, x1 = 0.3998	912.61	3.19
288.15 K, x1 = 0.5	929.664	3.406
288.15 K, x1 = 0.5999	944.359	3.623
288.15 K, x1 = 0.7001	957.317	3.83
288.15 K, x1 = 0.7996	968.544	4.04
288.15 K, x1 = 0.8998	978.506	4.287
288.15 K, x1 = 1	987.269	4.628
293.15 K, x1 = 0.1	837.385	2.305
293.15 K, x1 = 0.2	865.152	2.431
293.15 K, x1 = 0.3001	888.44	2.584
293.15 K, x1 = 0.3998	908.086	2.751
293.15 K, x1 = 0.5	925.055	2.921
293.15 K, x1 = 0.5999	939.67	3.092
293.15 K, x1 = 0.7001	952.563	3.257
293.15 K, x1 = 0.7996	963.731	3.426
293.15 K, x1 = 0.8998	973.646	3.622
293.15 K, x1 = 1	982.366	3.88
298.15 K, x1 = 0.1	833.207	2.034
298.15 K, x1 = 0.2	860.837	2.147
298.15 K, x1 = 0.3001	883.997	2.277
298.15 K, x1 = 0.3998	903.535	2.413
298.15 K, x1 = 0.5	920.415	2.548
298.15 K, x1 = 0.5999	934.96	2.679
298.15 K, x1 = 0.7001	947.782	2.81
298.15 K, x1 = 0.7996	958.893	2.946
298.15 K, x1 = 0.8998	968.763	3.104
298.15 K, x1 = 1	977.448	3.307
303.15 K, x1 = 0.1	828.994	1.796
303.15 K, x1 = 0.2	856.474	1.888
303.15 K, x1 = 0.3001	879.517	1.994
303.15 K, x1 = 0.3998	898.955	2.105
303.15 K, x1 = 0.5	915.748	2.219
303.15 K, x1 = 0.5999	930.218	2.328
303.15 K, x1 = 0.7001	942.977	2.439
303.15 K, x1 = 0.7996	954.036	2.554
303.15 K, x1 = 0.8998	963.865	2.685
303.15 K, x1 = 1	972.515	2.85
308.15 K, x1 = 0.1	824.744	1.603
308.15 K, x1 = 0.2	852.093	1.679
308.15 K, x1 = 0.3001	875.001	1.769
308.15 K, x1 = 0.3998	894.346	1.862
308.15 K, x1 = 0.5	911.045	1.957
308.15 K, x1 = 0.5999	925.444	2.05
308.15 K, x1 = 0.7001	938.146	2.143
308.15 K, x1 = 0.7996	949.162	2.238
308.15 K, x1 = 0.8998	958.949	2.346
308.15 K, x1 = 1	967.567	2.481
313.15 K, x1 = 0.1	820.45	1.431
313.15 K, x1 = 0.2	847.649	1.5
313.15 K, x1 = 0.3001	870.443	1.579
313.15 K, x1 = 0.3998	889.684	1.659
313.15 K, x1 = 0.5	906.306	1.739
313.15 K, x1 = 0.5999	920.642	1.818
313.15 K, x1 = 0.7001	933.287	1.899
313.15 K, x1 = 0.7996	944.258	1.982
313.15 K, x1 = 0.8998	954.012	2.075
313.15 K, x1 = 1	962.603	2.181
318.15 K, x1 = 0.1	816.108	1.287
318.15 K, x1 = 0.2	843.16	1.349
318.15 K, x1 = 0.3001	865.84	1.417
318.15 K, x1 = 0.3998	884.981	1.486
318.15 K, x1 = 0.5	901.531	1.554
318.15 K, x1 = 0.5999	915.803	1.623
318.15 K, x1 = 0.7001	928.398	1.693
318.15 K, x1 = 0.7996	939.33	1.766
318.15 K, x1 = 0.8998	949.054	1.847
318.15 K, x1 = 1	957.624	1.935
323.15 K, x1 = 0.1	811.714	1.169
323.15 K, x1 = 0.2	838.623	1.222
323.15 K, x1 = 0.3001	861.188	1.28
323.15 K, x1 = 0.3998	880.239	1.339
323.15 K, x1 = 0.5	896.715	1.398
323.15 K, x1 = 0.5999	910.93	1.458
323.15 K, x1 = 0.7001	923.482	1.519
323.15 K, x1 = 0.7996	934.378	1.584
323.15 K, x1 = 0.8998	944.076	1.653
323.15 K, x1 = 1	952.631	1.728

CCCCOC(=O)C(C)O (stereo not given) [butyl 2-hydroxypropanoate] + OCCCO
Conditions	mass density [kg/m3]	viscosity [mPa·s]
288.15 K, x1 = 0.0999	1046.52	55.22
288.15 K, x1 = 0.2	1037.84	41.92
288.15 K, x1 = 0.3001	1029.39	31.27
288.15 K, x1 = 0.4	1022.24	22.91
288.15 K, x1 = 0.4999	1015.45	16.95
288.15 K, x1 = 0.5999	1009.2	12.66
288.15 K, x1 = 0.6996	1003.51	9.596
288.15 K, x1 = 0.8001	997.914	7.373
288.15 K, x1 = 0.9	992.76	5.629
288.15 K, x1 = 1	987.269	4.628
293.15 K, x1 = 0.0999	1043.16	42.99
293.15 K, x1 = 0.2	1034.24	32.73
293.15 K, x1 = 0.3001	1025.58	24.47
293.15 K, x1 = 0.4	1018.23	18.13
293.15 K, x1 = 0.4999	1011.25	13.54
293.15 K, x1 = 0.5999	1004.84	10.21
293.15 K, x1 = 0.6996	999.008	7.805
293.15 K, x1 = 0.8001	993.26	6.064
293.15 K, x1 = 0.9	987.976	4.686
293.15 K, x1 = 1	982.366	3.88
298.15 K, x1 = 0.0999	1039.79	33.94
298.15 K, x1 = 0.2	1030.62	25.91
298.15 K, x1 = 0.3001	1021.73	19.59
298.15 K, x1 = 0.4	1014.19	14.51
298.15 K, x1 = 0.4999	1007.03	10.96
298.15 K, x1 = 0.5999	1000.47	8.355
298.15 K, x1 = 0.6996	994.488	6.444
298.15 K, x1 = 0.8001	988.587	5.056
298.15 K, x1 = 0.9	983.173	3.957
298.15 K, x1 = 1	977.448	3.307
303.15 K, x1 = 0.0999	1036.41	27.14
303.15 K, x1 = 0.2	1026.99	20.8
303.15 K, x1 = 0.3001	1017.87	15.82
303.15 K, x1 = 0.4	1010.14	11.86
303.15 K, x1 = 0.4999	1002.79	8.984
303.15 K, x1 = 0.5999	996.07	6.919
303.15 K, x1 = 0.6996	989.946	5.405
303.15 K, x1 = 0.8001	983.896	4.286
303.15 K, x1 = 0.9	978.359	3.386
303.15 K, x1 = 1	972.515	2.86
308.15 K, x1 = 0.0999	1033	21.95
308.15 K, x1 = 0.2	1023.33	16.89
308.15 K, x1 = 0.3001	1013.99	12.93
308.15 K, x1 = 0.4	1006.06	9.744
308.15 K, x1 = 0.4999	998.523	7.491
308.15 K, x1 = 0.5999	991.652	5.805
308.15 K, x1 = 0.6996	985.382	4.581
308.15 K, x1 = 0.8001	979.183	3.667
308.15 K, x1 = 0.9	973.522	2.929
308.15 K, x1 = 1	967.567	2.481
313.15 K, x1 = 0.0999	1029.57	17.95
313.15 K, x1 = 0.2	1019.65	13.87
313.15 K, x1 = 0.3001	1010.09	10.69
313.15 K, x1 = 0.4	1001.96	8.124
313.15 K, x1 = 0.4999	994.239	6.299
313.15 K, x1 = 0.5999	987.21	4.926
313.15 K, x1 = 0.6996	980.794	3.922
313.15 K, x1 = 0.8001	974.453	3.171
313.15 K, x1 = 0.9	968.668	2.558
313.15 K, x1 = 1	962.603	2.181
318.15 K, x1 = 0.0999	1026.13	14.83
318.15 K, x1 = 0.2	1015.95	11.5
318.15 K, x1 = 0.3001	1006.16	8.916
318.15 K, x1 = 0.4	997.828	6.84
318.15 K, x1 = 0.4999	989.925	5.351
318.15 K, x1 = 0.5999	982.743	4.221
318.15 K, x1 = 0.6996	976.184	3.391
318.15 K, x1 = 0.8001	969.697	2.768
318.15 K, x1 = 0.9	963.791	2.253
318.15 K, x1 = 1	957.624	1.935
323.15 K, x1 = 0.0999	1022.65	12.36
323.15 K, x1 = 0.2	1012.21	9.627
323.15 K, x1 = 0.3001	1002.2	7.519
323.15 K, x1 = 0.4	993.673	5.813
323.15 K, x1 = 0.4999	985.589	4.586
323.15 K, x1 = 0.5999	978.248	3.65
323.15 K, x1 = 0.6996	971.548	2.958
323.15 K, x1 = 0.8001	964.924	2.435
323.15 K, x1 = 0.9	958.899	2.002
323.15 K, x1 = 1	952.631	1.728
